Laboratory results reported in ChEMBL document CHEMBL4219054, “Induction of apoptosis by pyrazolo[3,4-d]pyridazine derivative in lung cancer cells via disruption of Bcl-2/Bax expression balance” (Bioorg Med Chem, 2018).

Columns and labels:
HepG2 = experiment: Antiproliferative activity against human HepG2 cells after 48 hrs by MTT assay; assay type: functional, cell-based
HCT-116 = experiment: Antiproliferative activity against human HCT116 cells after 48 hrs by MTT assay; assay type: functional, cell-based
A549 [1] = experiment: Antiproliferative activity against human A549 cells after 48 hrs by MTT assay; assay type: functional, cell-based
[2] = Antiproliferative activity against human HFB4 cells after 48 hrs by MTT assay; assay type: cell-based
WI-38 = experiment: Antiproliferative activity against human WI38 cells after 48 hrs by MTT assay; assay type: cell-based; settings: WI-38, 48 h
A549 [3] = experiment: Cell cycle arrest in human A549 cells assessed as accumulation at sub G1 phase at 0.067 mM after 48 hrs by propidium iodide staining-based flow cytometric analysis (reference value: 0.77%); assay type: functional
A549 [4] = experiment: Cell cycle arrest in human A549 cells assessed as accumulation at G0/G1 phase at 0.067 mM after 48 hrs by propidium iodide staining-based flow cytometric analysis (reference value: 66.85%); assay type: functional
A549 [5] = experiment: Cell cycle arrest in human A549 cells assessed as accumulation at S phase at 0.067 mM after 48 hrs by propidium iodide staining-based flow cytometric analysis (reference value: 27.04%); assay type: functional
A549 [6] = experiment: Cell cycle arrest in human A549 cells assessed as accumulation at G2/M phase at 0.067 mM after 48 hrs by propidium iodide staining-based flow cytometric analysis (reference value: 5.34%); assay type: functional
A549 [7] = experiment: Induction of apoptosis in human A549 assessed as viable cells at 0.067 mM after 48 hrs by Annexin-V FITC/propidium iodide staining-based flow cytometric analysis (reference value: 97.42%); assay type: functional; settings: A549, 48 h, read-out: Activity
A549 [8] = experiment: Induction of apoptosis in human A549 assessed as early apoptotic cells at 0.067 mM after 48 hrs by Annexin-V FITC/propidium iodide staining-based flow cytometric analysis (reference value: 0.36%); assay type: functional
A549 [9] = experiment: Induction of apoptosis in human A549 assessed as late apoptotic cells at 0.067 mM after 48 hrs by Annexin-V FITC/propidium iodide staining-based flow cytometric analysis (reference value: 0.21%); assay type: functional
A549 [10] = experiment: Induction of apoptosis in human A549 assessed as necrotic cells at 0.067 mM after 48 hrs by Annexin-V FITC/propidium iodide staining-based flow cytometric analysis (reference value: 0.2%); assay type: functional
A549 [11] = experiment: Induction of apoptosis in human A549 assessed as upregulation of caspase-3 mRNA expression level at 0.067 mM by RT-PCR analysis relative to control; assay type: functional
A549 [12] = experiment: Induction of apoptosis in human A549 assessed as upregulation of Bax mRNA expression level at 0.067 mM by RT-PCR analysis relative to control; assay type: functional
A549 [13] = experiment: Induction of apoptosis in human A549 assessed as upregulation of p53 mRNA expression level at 0.067 mM by RT-PCR analysis relative to control; assay type: functional
A549 [14] = experiment: Induction of apoptosis in human A549 assessed as inhibition of Bcl2 mRNA expression level at 0.067 mM by RT-PCR analysis relative to control; assay type: functional

In the case of `O=c1oc2ccc3ccccc3c2cc1-c1n[nH]c(=O)c2nn(-c3ccccc3)cc12`, the Activity (HepG2) is reported as “Dose-dependent effect”, the IC50 (HepG2; HepG2, 48 h) is reported as 115 µM and the Activity (HCT-116) is reported as “Dose-dependent effect”. For the same molecule, the IC50 (HCT-116; HCT-116, 48 h) was 130 µM, the Activity (A549 [1]) was “Dose-dependent effect” and the IC50 (A549 [1]; A549, 48 h) was 67 µM. The IC50 [2] was 281 µM, the IC50 (WI-38) was 219 µM and the Activity (A549 [3]) was 11.42%. The Activity (A549 [4]) was 56.88%, the Activity (A549 [5]) was 16.59% and the Activity (A549 [6]) was 15.11%. It also gave a viability at 67 µM (A549 [7]) of 86.9%, an Activity (A549 [8]) of 4.69% and an Activity (A549 [9]) of 5.37%. The Activity (A549 [10]) was 1.36%, the “fold change (FC)” value (A549 [11]) was 7.19 and the “fold change (FC)” value (A549 [12]) was 7.28. The “fold change (FC)” value (A549 [13]) was 5.08 and the “fold change (FC)” value (A549 [14]) was 0.22.
